Data: PubChem BioAssay (NCI)
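96-well plates; 48 h exposure; 5 concentrations. Endpoints by linear interpolation between flanking doses. Not reached: highest tested concentration assigned. GI50: concentration for 50% inhibition of growth. At the TGI there is no net growth.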 Where a SMILES comes first, the peptide text is derived from it. The star is where a group is joined. Palmitoyl = CCCCCCCCCCCCCCCC(=O)*

Assays:
Test in all cases: NCI tumour cell line growth inhibition, 48 h
HCT-116 colon = tested on: HCT-116 colon
HL-60(TB) leukemia = tested on: HL-60(TB) leukemia
HT29 colon = tested on: HT29 colon
K-562 leukemia = tested on: K-562 leukemia
KM12 colon = tested on: KM12 colon
MALME-3M melanoma = tested on: MALME-3M melanoma
NCI-H226 lung = tested on: NCI-H226 lung
SNB-19 CNS = tested on: SNB-19 CNS
U251 CNS = tested on: U251 CNS
NCI-H522 lung = tested on: NCI-H522 lung

Row | Compound | TGI (HCT-116 colon) [µM] | TGI (HL-60(TB) leukemia) [µM] | TGI (HT29 colon) [µM] | TGI (K-562 leukemia) [µM] | TGI (KM12 colon) [µM] | TGI (MALME-3M melanoma) [µM] | TGI (NCI-H226 lung) [µM] | TGI (SNB-19 CNS) [µM] | TGI (U251 CNS) [µM] | TGI (NCI-H522 lung) [µM] | GI50 (HCT-116 colon) [µM] | GI50 (HL-60(TB) leukemia) [µM] | GI50 (HT29 colon) [µM] | GI50 (K-562 leukemia) [µM] | GI50 (KM12 colon) [µM] | GI50 (MALME-3M melanoma) [µM] | GI50 (NCI-H226 lung) [µM] | GI50 (NCI-H522 lung) [µM] | GI50 (SNB-19 CNS) [µM] | GI50 (U251 CNS) [µM]
1 | Cc1c(-c2ccccc2)[nH]c2cc(Cl)ccc2c1=O | > 100 | > 100 | > 100 | > 100 | 18.7 | > 100 | 68 | > 100 | 78.1 | – | – | – | – | – | – | – | – | – | – | –
2 | COc1cc(C(C)O)c[n+](Cc2ccccc2)c1 (configuration not stated) | > 100 | > 100 | > 100 | > 100 | > 100 | > 100 | > 100 | > 100 | > 100 | > 100 | – | – | – | – | – | – | – | – | – | –
3 | CON(C)c1nc(N(C)OC)nc(N(C)OC)n1 | > 10 | > 10 | > 10 | > 10 | > 10 | > 10 | > 10 | > 10 | > 10 | > 10 | – | – | – | – | – | – | – | – | – | –
4 | CC(N)Cc1ccc(Cl)c(Cl)c1 (configuration not stated) | > 100 | 42.4 | 56.5 | 44 | > 100 | 35.5 | > 100 | > 100 | > 89.6 | > 66.9 | – | – | – | – | – | – | – | – | – | –
5 | COC(=O)c1c(C)n([O-])c2cc(Cl)c(Cl)cc2[n+]1=O | > 100 | 50.2 | 51.6 | > 100 | 33.1 | 31.1 | – | > 100 | > 100 | 25.4 | – | – | – | – | – | – | – | – | – | –
6 | CCN1CCC(O)(/C=C/c2ccccc2C)C(C(=O)/C=C/c2ccccc2C)C1 (configuration not stated) | 3.38 | 4.85 | 6.7 | > 100 | – | 16.3 | – | – | 7.25 | – | – | – | – | – | – | – | – | – | – | –
7 | CN1C(c2ccccc2)CC(=O)C(N)C1c1ccccc1 (configuration not stated) | 34.2 | 56.7 | 55.8 | > 67.6 | 57.5 | 50 | > 100 | > 100 | 49.2 | 33.7 | – | – | – | – | – | – | – | – | – | –
8 | O=C(N/N=C/c1ccc([N+](=O)[O-])cc1)Nc1ccc(C(=O)O)cc1 | > 100 | > 100 | > 100 | > 100 | > 100 | > 100 | 85.8 | > 100 | > 100 | 58 | – | – | – | – | – | – | – | – | – | –
9 | c1cnc2c(c1)ccc1cccnc12 | > 100 | 3.04 | > 100 | > 52.7 | > 100 | > 35.3 | > 23.5 | > 100 | > 100 | > 100 | – | – | – | – | – | – | – | – | – | –
10 | COC(=O)/C=C(\CC(=O)OC)n1nnnc1[C@@H]1C[C@H](COC(c2ccccc2)(c2ccccc2)c2ccccc2)[C@H]2OC(C)(C)O[C@H]21 | > 100 | > 100 | > 100 | > 100 | > 100 | > 100 | > 100 | > 100 | > 100 | > 100 | – | – | – | – | – | – | – | – | – | –
11 | CCCCCCCCCCCCCCCC(=O)N1CCCC1C(=O)NCC(=O)NC(Cc1ccccc1)C(=O)NC(C)C(=O)NC(CO)C(=O)NC(Cc1ccc(O)cc1)C(=O)NC(CCCCN)C(=O)NC(CC(C)C)C(=O)NC(CCCN=C(N)N)C(=O)N1CCCC1C(=O)NCC(N)=O (configuration not stated) (Palmitoyl-PGFASYKLRPG-NH2; configuration not given here) | 24.9 | 31 | 30.5 | 32.2 | 51.4 | 47.3 | 35.6 | 39.7 | – | 46.9 | 12.1 | 17.2 | 16.8 | 18.3 | 21.9 | 18 | 15.9 | 20.2 | 18.4 | –
12 | Cc1ccc(-c2nc(N/N=C/C=C/c3ccccc3)c3ccccc3n2)cc1 | > 100 | > 100 | > 100 | > 100 | > 100 | > 100 | > 100 | > 100 | > 100 | > 100 | – | – | – | – | – | – | – | – | – | –
13 | C=C(C)C1Cc2c(c3ccccc3n(C)c2=O)O1 (configuration not stated) | – | > 100 | > 100 | > 100 | – | > 100 | > 100 | > 100 | > 100 | > 100 | – | – | – | – | – | – | – | – | – | –
14 | c1ccc(-c2nc(N3CCNCC3)c3oc(-c4ccccc4)nc3n2)cc1 | – | 4.26 | – | 2.35 | 3.35 | 3.17 | 5.05 | 3.15 | – | 4.51 | – | 2.03 | – | 0.428 | 1.8 | 1.7 | 2.11 | 1.99 | 1.72 | –
15 | CC(C)C(C(=O)O)N1C(=O)c2ccccc2C1=O (configuration not stated) | > 100 | > 100 | > 100 | > 100 | > 100 | > 100 | > 100 | > 100 | > 100 | > 100 | – | – | – | – | – | – | – | – | – | –
16 | COC(=O)c1ccc2c(c1)S/C(=C/c1ccc3ccc4cccc5ccc1c3c45)S2 | > 100 | 46.9 | > 100 | > 100 | 57.3 | > 100 | > 100 | > 100 | > 100 | 92.2 | – | – | – | – | – | – | – | – | – | –
17 | O[C@@]12Cc3c([nH]c4ccccc34)[C@@H]3Oc4cccc5c4[C@@]31CCN(CC1CC1)[C@@H]2C5 | – | – | 29.8 | 55.4 | 54 | 33.9 | – | 50.9 | 54 | 38 | – | – | – | – | – | – | – | – | – | –
18 | COC(=O)C1=C(OC(=O)/C(=C/c2ccc(Cl)cc2)c2ccc(Cl)cc2)C(C(=O)OC)[C@]2(O)[C@@H](C(=O)OC)[C@H]1C[C@@H](c1ccccc1)[C@@H]2C(=O)OC (some centres not stated) | > 100 | > 100 | > 100 | > 100 | > 100 | – | > 100 | > 100 | > 100 | > 100 | – | – | – | – | – | – | – | – | – | –
19 | CCCC1CCC(=C2C(=O)CCC2=O)O1 (configuration not stated) | > 100 | > 100 | > 100 | > 100 | > 100 | – | > 100 | > 100 | > 100 | > 100 | – | – | – | – | – | – | – | – | – | –
20 | Cn1c(-c2ccccc2)cc(-c2cccs2)c1-c1cccs1 | > 100 | > 100 | > 100 | > 100 | > 44.9 | > 100 | > 100 | > 100 | > 100 | > 100 | – | – | – | – | – | – | – | – | – | –
21 | Nc1nc(Nc2ccccc2)c2[nH]cnc2n1 | > 100 | > 100 | > 100 | > 100 | > 100 | > 100 | > 100 | > 100 | > 100 | > 100 | – | – | – | – | – | – | – | – | – | –
22 | OCCN(CCO)c1ncnc2nc[nH]c12 | > 100 | – | > 100 | > 100 | > 100 | > 100 | > 100 | > 100 | > 100 | > 100 | – | – | – | – | – | – | – | – | – | –
23 | CC1=NN(c2nc(N)nc(/C(C#N)=C\c3csc([N+](=O)[O-])c3)n2)C(C)(C)C1 | > 100 | > 100 | > 100 | > 100 | > 100 | – | 76 | – | 39.4 | 50.1 | – | – | – | – | – | – | – | – | – | –
24 | O=c1c2cc(S(=O)(=O)O)ccc2nc(COc2ccc(Oc3ccc(Cl)cc3Cl)cc2)n1-c1ccc(Oc2ccc(Cl)cc2)cc1Cl | 58.4 | 76 | 36 | 83.1 | > 100 | 85.2 | 48.9 | 67.7 | 30.1 | 47.8 | – | – | – | – | – | – | – | – | – | –
25 | CC1=C(O)C2=C(C(=O)C1=O)[C@@H](C)CC[C@@H]2[C@@H](C)C/C=C/C(C)(C)O | > 100 | 71.3 | > 100 | > 100 | > 100 | – | > 100 | > 100 | > 100 | 58.8 | – | – | – | – | – | – | – | – | – | –
26 | CC12C=CC(=O)C=C1CCC1C3CCC(O)(C(=O)CO)C3(C)CC(O)C12F (configuration not stated) | > 100 | > 100 | > 100 | > 100 | > 100 | > 100 | > 100 | > 100 | > 100 | > 100 | – | – | – | – | – | – | – | – | – | –
27 | Nc1nc(O)c2ncn([C@H]3CC[C@@H](CO)O3)c2n1 | > 100 | – | > 100 | > 100 | > 100 | > 100 | > 100 | > 100 | > 100 | – | – | – | – | – | – | – | – | – | – | –
28 | COc1ccc(Oc2cccc(C3C4C(=O)N(c5ccc(C)c(Cl)c5)C(=O)C4ON3C(C(N)=O)c3ccccc3)c2)cc1 (configuration not stated) | 45.2 | > 50 | 19.8 | > 50 | > 50 | > 50 | 44.8 | > 50 | > 50 | 32.6 | – | – | – | – | – | – | – | – | – | –
29 | C/C(=N/N=C(\[O-])c1ccncc1)C(F)(F)F.C/C(=N\N=C(/[O-])c1ccncc1)C(F)(F)F.[Ni+2] | – | > 1 | > 1 | > 1 | > 1 | > 1 | > 1 | > 1 | – | – | – | – | > 1 | > 1 | > 1 | > 1 | > 1 | – | > 1 | > 1
